Experimental data published in patent publication US20240124412A1, “IKAROS ZINC FINGER FAMILY DEGRADERS AND USES THEREOF” (Gilead Sciences, Inc., priority 2021, published 2024).

What was measured:
IKZF1 = target: T1, IKZF1 (Homo sapiens, UniProt Q13422+Q96SW2); assay: HiBiT protein tagging assay, in vitro IKZF1 degradation (HEK293); format: cell-based; conditions: HEK293, 18-24 hr incubation, normalized to DMSO control; for Dmax: read-out: IKZF1 Dmax (maximum degradation at the highest concentration tested); for DC50: read-out: IKZF1 EC50
T1 construct: expressed in transfected cells
T1 sequence (Q13422 whole entry): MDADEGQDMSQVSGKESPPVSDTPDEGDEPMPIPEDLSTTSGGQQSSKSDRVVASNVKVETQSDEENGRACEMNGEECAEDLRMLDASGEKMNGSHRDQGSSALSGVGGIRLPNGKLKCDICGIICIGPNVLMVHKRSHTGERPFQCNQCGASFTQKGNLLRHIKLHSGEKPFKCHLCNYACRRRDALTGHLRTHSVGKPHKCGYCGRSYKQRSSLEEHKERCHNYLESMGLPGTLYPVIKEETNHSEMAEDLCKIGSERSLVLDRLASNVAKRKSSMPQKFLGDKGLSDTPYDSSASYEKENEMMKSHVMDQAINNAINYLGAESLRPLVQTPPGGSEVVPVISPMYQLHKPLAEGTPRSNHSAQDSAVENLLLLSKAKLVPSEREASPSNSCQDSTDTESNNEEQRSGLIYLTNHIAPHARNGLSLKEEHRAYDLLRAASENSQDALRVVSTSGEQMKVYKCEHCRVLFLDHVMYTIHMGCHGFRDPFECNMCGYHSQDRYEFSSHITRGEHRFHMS
T1 sequence (Q96SW2 whole entry): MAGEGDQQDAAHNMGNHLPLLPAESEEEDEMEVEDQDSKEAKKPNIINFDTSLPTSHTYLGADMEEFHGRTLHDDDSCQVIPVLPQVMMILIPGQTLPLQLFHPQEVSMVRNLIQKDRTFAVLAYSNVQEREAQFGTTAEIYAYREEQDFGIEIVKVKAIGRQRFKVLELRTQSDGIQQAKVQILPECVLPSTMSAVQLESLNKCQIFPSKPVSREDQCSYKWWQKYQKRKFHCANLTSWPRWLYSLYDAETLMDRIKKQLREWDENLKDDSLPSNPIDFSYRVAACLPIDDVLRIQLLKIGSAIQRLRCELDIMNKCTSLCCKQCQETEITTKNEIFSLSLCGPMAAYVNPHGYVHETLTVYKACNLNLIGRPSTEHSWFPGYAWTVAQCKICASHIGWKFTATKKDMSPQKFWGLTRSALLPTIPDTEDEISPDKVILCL
T1 sequence (Q16531 whole entry partner): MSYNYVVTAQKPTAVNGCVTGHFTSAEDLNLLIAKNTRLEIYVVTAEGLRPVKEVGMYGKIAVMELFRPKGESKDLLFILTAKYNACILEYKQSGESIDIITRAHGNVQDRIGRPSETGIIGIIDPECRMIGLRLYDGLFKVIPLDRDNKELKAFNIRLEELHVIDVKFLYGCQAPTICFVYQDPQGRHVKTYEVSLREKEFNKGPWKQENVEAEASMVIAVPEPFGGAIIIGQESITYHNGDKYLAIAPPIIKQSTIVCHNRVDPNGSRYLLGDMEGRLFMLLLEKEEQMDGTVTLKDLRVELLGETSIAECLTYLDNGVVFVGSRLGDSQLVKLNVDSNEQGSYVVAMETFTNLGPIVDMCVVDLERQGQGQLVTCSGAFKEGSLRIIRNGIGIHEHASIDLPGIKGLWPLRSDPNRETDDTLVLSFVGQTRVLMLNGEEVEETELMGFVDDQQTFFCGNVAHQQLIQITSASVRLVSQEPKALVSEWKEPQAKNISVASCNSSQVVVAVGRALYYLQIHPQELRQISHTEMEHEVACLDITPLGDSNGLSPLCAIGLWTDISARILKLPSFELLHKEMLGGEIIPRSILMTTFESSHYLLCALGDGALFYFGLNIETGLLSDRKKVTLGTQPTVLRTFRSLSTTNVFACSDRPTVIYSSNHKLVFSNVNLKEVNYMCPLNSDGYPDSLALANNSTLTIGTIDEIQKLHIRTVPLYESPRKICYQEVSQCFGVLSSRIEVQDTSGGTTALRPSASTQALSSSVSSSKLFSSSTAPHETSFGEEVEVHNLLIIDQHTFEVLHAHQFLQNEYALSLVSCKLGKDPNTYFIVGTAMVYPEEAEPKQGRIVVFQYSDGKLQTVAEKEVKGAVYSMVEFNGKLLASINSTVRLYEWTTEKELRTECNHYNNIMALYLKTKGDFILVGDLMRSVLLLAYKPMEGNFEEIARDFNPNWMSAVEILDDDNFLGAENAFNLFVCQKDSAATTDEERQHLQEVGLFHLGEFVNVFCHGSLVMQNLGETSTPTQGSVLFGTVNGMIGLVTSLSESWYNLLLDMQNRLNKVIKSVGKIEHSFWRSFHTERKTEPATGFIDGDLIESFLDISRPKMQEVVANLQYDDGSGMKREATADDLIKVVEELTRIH
Procedure, shortened: (§1)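 Flp-In T-REx HEK293 pools stably expressing C-terminal HiBiT-tagged IKZF1 or IKZF2 were induced overnight with 1 μg/ml doxycycline. Cells were then treated with serially diluted compound for 18-24 hr at 37 °C and read by Nano-Glo lytic luminescence. Data were normalized to 0.5% DMSO as POC; EC50 and Dmax (maximum degradation at highest concentration tested) reported.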

IKZF2 = target: T2, IKZF2 (Homo sapiens, UniProt Q96SW2+Q9UKS7); assay: HiBiT protein tagging assay, in vitro IKZF2 degradation (HEK293); format: cell-based; conditions: HEK293, 18-24 hr incubation, normalized to DMSO control; for Dmax: HEK293, HiBiT assay, read-out: IKZF2 Dmax (maximum degradation at the highest concentration tested); for DC50: read-out: IKZF2 EC50
T2 construct: expressed in transfected cells
T2 sequence (Q9UKS7 1-500 isoform Q9UKS7-2): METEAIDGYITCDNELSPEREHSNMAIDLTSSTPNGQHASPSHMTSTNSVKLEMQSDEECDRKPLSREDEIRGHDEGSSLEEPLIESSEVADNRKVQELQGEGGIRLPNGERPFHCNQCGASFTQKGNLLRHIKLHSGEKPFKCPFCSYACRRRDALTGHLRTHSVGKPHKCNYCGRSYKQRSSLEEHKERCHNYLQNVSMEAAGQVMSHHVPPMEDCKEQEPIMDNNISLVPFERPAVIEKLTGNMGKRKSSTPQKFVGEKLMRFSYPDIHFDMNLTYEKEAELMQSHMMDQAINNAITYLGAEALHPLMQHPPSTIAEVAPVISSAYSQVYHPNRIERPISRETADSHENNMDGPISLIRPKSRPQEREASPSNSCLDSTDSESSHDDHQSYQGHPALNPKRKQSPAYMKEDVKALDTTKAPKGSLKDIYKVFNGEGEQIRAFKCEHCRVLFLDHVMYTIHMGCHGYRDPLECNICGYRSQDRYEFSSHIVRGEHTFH
T2 sequence (Q96SW2 whole entry): as the sequence (Q96SW2 whole entry) above
T2 sequence (Q16531 whole entry partner): as the sequence (Q16531 whole entry partner) above
Procedure, shortened: as §1

Compound `C[C@@H]1CCCC[C@@H]1NCc1ccc2c(c1)CN(C1CCC(=O)NC1=O)C2=O` (stereo partly drawn) [Example 46] has a Dmax (IKZF1) of 36%, a DC50 (IKZF1) of 275 nM and a Dmax (IKZF2) of 76%. The DC50 (IKZF2; HiBiT assay) was 141 nM.
With `C[C@H]1CC[C@H](NCc2ccc3c(c2)CN(C2CCC(=O)NC2=O)C3=O)CC1` (stereo partly drawn) [Example 47] the Dmax (IKZF1) was 41%, the DC50 (IKZF1) was 189 nM and the Dmax (IKZF2) was 82%. It also gave a DC50 (IKZF2; HiBiT assay) of 182 nM.
In the case of `CCN1CCC(NCc2ccc3c(c2)CN(C2CCC(=O)NC2=O)C3=O)CC1` (stereo not drawn) [Example 48, 3-(5-(((1-Ethylpiperidin-4-yl)amino)methyl)-1-oxoisoindolin-2-yl)piperidine-2,6-dione], the Dmax (IKZF1) is reported as 25%, the DC50 (IKZF1) is reported as 655 nM and the Dmax (IKZF2) is reported as 32%. The DC50 (IKZF2; HiBiT assay) was 2800 nM.
With `O=C1CCC(N2Cc3cc(CNC4CCCC(c5ccccc5)C4)ccc3C2=O)C(=O)N1` (stereo not drawn) [Example 50] the Dmax (IKZF1) was 30%, the DC50 (IKZF1) was 47 nM and the Dmax (IKZF2) was 51%. For the same compound, the DC50 (IKZF2; HiBiT assay) was 166 nM.
Compound `C[C@H](CO)NCc1ccc2c(c1)CN(C1CCC(=O)NC1=O)C2=O` (stereo partly drawn) [Example 51, 3-[5-[[[(1R)-2-hydroxy-1-methyl-ethyl]amino]methyl]-1-oxo-isoindolin-2-yl]piperidine-2,6-dione] has a Dmax (IKZF1) of 36%, a DC50 (IKZF1) of 263 nM and a Dmax (IKZF2) of 17%. The DC50 (IKZF2; HiBiT assay) was 1200 nM.
In the case of `O=C1CCC(N2Cc3cc(CN[C@H](CO)c4ccccc4)ccc3C2=O)C(=O)N1` (stereo partly drawn) [Example 52], the DC50 (IKZF1) is reported as > 10000 nM, the Dmax (IKZF2) is reported as 22% and the DC50 (IKZF2; HiBiT assay) is reported as 472 nM.
`C[C@@H](CO)NCc1ccc2c(c1)CN(C1CCC(=O)NC1=O)C2=O` (stereo partly drawn) [Example 53] showed a Dmax (IKZF1) of 24%, a DC50 (IKZF1) of 289 nM and a Dmax (IKZF2) of 20%. The DC50 (IKZF2; HiBiT assay) was 460 nM.
In the case of `O=C1CCC(N2Cc3cc(CN[C@H]4C[C@@H](O)C4)ccc3C2=O)C(=O)N1` (stereo partly drawn) [Example 54], the Dmax (IKZF1) is reported as 28%, the DC50 (IKZF1) is reported as 367 nM and the Dmax (IKZF2) is reported as 33%. The DC50 (IKZF2; HiBiT assay) was 2800 nM.
In the case of `O=C1CCC(N2Cc3cc(CNCCCO)ccc3C2=O)C(=O)N1` (stereo not drawn) [Example 55], the Dmax (IKZF1) is reported as 36%, the DC50 (IKZF1) is reported as 394 nM and the Dmax (IKZF2) is reported as 20%. The DC50 (IKZF2; HiBiT assay) was 1300 nM.
With `O=C1CCC(N2Cc3cc(CN[C@H](CO)Cc4ccccc4)ccc3C2=O)C(=O)N1` (stereo partly drawn) [Example 56] the Dmax (IKZF1) was 23%, the DC50 (IKZF1) was 222 nM and the Dmax (IKZF2) was 22%. The DC50 (IKZF2; HiBiT assay) was 525 nM.
Compound `O=C1CCC(N2Cc3cc(CNC4CCN(C(=O)c5ccccc5)CC4)ccc3C2=O)C(=O)N1` (stereo not drawn) [Example 57] has a Dmax (IKZF1) of 77%, a DC50 (IKZF1) of 246 nM and a Dmax (IKZF2) of 96%. The DC50 (IKZF2; HiBiT assay) was 1300 nM.
Work on `O=C1CCC(N2Cc3cc(CNC4CCC5(CC4)CC5)ccc3C2=O)C(=O)N1` (stereo not drawn) [Example 58] yielded a Dmax (IKZF1) of 66%, a DC50 (IKZF1) of 50 nM and a Dmax (IKZF2) of 81%. It also gave a DC50 (IKZF2; HiBiT assay) of 67 nM.
For `O=C1CCC(N2Cc3cc(CNC4CCC5(CCC5)CC4)ccc3C2=O)C(=O)N1` (stereo not drawn) [Example 59], the Dmax (IKZF1) was 62%, the DC50 (IKZF1) was 50 nM and the Dmax (IKZF2) was 74%. For the same compound, the DC50 (IKZF2; HiBiT assay) was 55 nM.
Work on `O=C1CCC(N2Cc3cc(CNC4CCC5(CC4)COC5)ccc3C2=O)C(=O)N1` (stereo not drawn) [Example 60] yielded a Dmax (IKZF1) of 55%, a DC50 (IKZF1) of 403 nM and a Dmax (IKZF2) of 84%. It also gave a DC50 (IKZF2; HiBiT assay) of 401 nM.
`O=C1CCC(N2Cc3cc(CNC4CCN(Cc5ccccc5)C(=O)C4)ccc3C2=O)C(=O)N1` (stereo not drawn) [Example 61] gave a Dmax (IKZF1) of 27%, a Dmax (IKZF2) of 29% and a DC50 (IKZF2; HiBiT assay) of 1400 nM.
For `O=C1CCC(N2Cc3cc(CNC4CCN(Cc5ccccc5)C(=O)C4)ccc3C2=O)C(=O)N1` (stereo not drawn) [Example 62], the “IKZF1 Dmax (maximum degradation at the highest concentration tested)” value (IKZF1) was 27%, the DC50 (IKZF1) was 886 nM and the “IKZF2 Dmax (maximum degradation at the highest concentration tested)” value (IKZF2; HiBiT assay) was 27%. The DC50 (IKZF2; HiBiT assay) was 1700 nM.
For `N#CC[C@H]1CC[C@H](NCc2ccc3c(c2)CN(C2CCC(=O)NC2=O)C3=O)CC1` (stereo partly drawn) [Example 63], the Dmax (IKZF1) was 44%, the DC50 (IKZF1) was 609 nM and the Dmax (IKZF2) was 91%. For the same compound, the DC50 (IKZF2; HiBiT assay) was 361 nM.
Compound `O=C1CCC(N2Cc3cc(CNCc4cc5ccccc5[nH]4)ccc3C2=O)C(=O)N1` (stereo not drawn) [Example 64] has a Dmax (IKZF1) of 80%, a DC50 (IKZF1) of 61 nM and a Dmax (IKZF2) of 45%. For the same compound, the DC50 (IKZF2; HiBiT assay) was 276 nM.
For `O=C1CCC(N2Cc3cc(CN[C@H]4CC[C@](O)(c5ccccc5)CC4)ccc3C2=O)C(=O)N1` (stereo partly drawn) [Example 65], the Dmax (IKZF1) was 86%, the DC50 (IKZF1) was 29 nM and the Dmax (IKZF2) was 90%. For the same compound, the DC50 (IKZF2; HiBiT assay) was 67 nM.
For `O=C1CCC(N2Cc3cc(CN[C@H]4CC[C@@](O)(c5ccccc5)CC4)ccc3C2=O)C(=O)N1` (stereo partly drawn) [Example 66], the Dmax (IKZF1) was 77%, the DC50 (IKZF1) was 102 nM and the Dmax (IKZF2) was 83%. It also gave a DC50 (IKZF2; HiBiT assay) of 319 nM.
With `O=C1CCC(N2Cc3cc(CN[C@@H]4CCCC[C@H]4Cc4ccccc4)ccc3C2=O)C(=O)N1` (stereo partly drawn) [Example 67] the Dmax (IKZF1) was 73%, the DC50 (IKZF1) was 46 nM and the Dmax (IKZF2) was 75%. It also gave a DC50 (IKZF2; HiBiT assay) of 160 nM.
`O=C1CCC(N2Cc3cc(CN[C@@H]4CCCC[C@@H]4Cc4ccccc4)ccc3C2=O)C(=O)N1` (stereo partly drawn) [Example 68] showed a Dmax (IKZF1) of 68%, a DC50 (IKZF1) of 70 nM and a Dmax (IKZF2) of 68%. For the same compound, the DC50 (IKZF2; HiBiT assay) was 154 nM.
Compound `O=C1CCC(N2Cc3cc(CNC4CCC(Cc5ccccc5)C4)ccc3C2=O)C(=O)N1` (stereo not drawn) [Example 69] has a Dmax (IKZF1) of 57%, a DC50 (IKZF1) of 66 nM and a Dmax (IKZF2) of 68%. For the same compound, the DC50 (IKZF2; HiBiT assay) was 113 nM.
`O=C1CCC(N2Cc3cc(CNC4CCc5cccnc5C4)ccc3C2=O)C(=O)N1` (stereo not drawn) [Example 70, 3-(1-oxo-5-(((5,6,7,8-tetrahydroquinolin-7-yl)amino)methyl)isoindolin-2-yl)piperidine-2,6-dione] showed a Dmax (IKZF1) of 42%, a DC50 (IKZF1) of 89 nM and a Dmax (IKZF2) of 67%. The DC50 (IKZF2; HiBiT assay) was 303 nM.
Compound `O=C1CCC(N2Cc3cc(CN[C@@H]4C[C@@H]5CC[C@H]4C5)ccc3C2=O)C(=O)N1` (stereo partly drawn) [Example 71, 3-(5-((((1S,2R,4R)-bicyclo[2.2.1]heptan-2-yl)amino)methyl)-1-oxoisoindolin-2-yl)piperidine-2,6-dione] has a Dmax (IKZF1) of 33%, a DC50 (IKZF1) of 170 nM and a Dmax (IKZF2) of 36%. It also gave a DC50 (IKZF2; HiBiT assay) of 297 nM.
With `O=C1CCC(N2Cc3cc(CN[C@H]4C[C@H]5CC[C@@H]4C5)ccc3C2=O)C(=O)N1` (stereo partly drawn) [Example 72] the DC50 (IKZF1) was > 10000 nM, the Dmax (IKZF2) was 23% and the DC50 (IKZF2; HiBiT assay) was 389 nM.
Work on `O=C1CCC(N2Cc3cc(CN[C@@H]4CCCC[C@H]4CO)ccc3C2=O)C(=O)N1` (stereo partly drawn) [Example 73, 3-(5-((((1R,2R)-2-(hydroxymethyl)cyclohexyl)amino)methyl)-1-oxoisoindolin-2-yl)piperidine-2,6-dione] yielded a Dmax (IKZF1) of 34%, a DC50 (IKZF1) of 5800 nM and a Dmax (IKZF2) of 31%. The DC50 (IKZF2; HiBiT assay) was 1200 nM.
Compound `O=C1CCC(N2Cc3cc(CNC4CC5CC(C5)C4)ccc3C2=O)C(=O)N1` (stereo not drawn) [Example 74] has a Dmax (IKZF1) of 53%, a DC50 (IKZF1) of 52 nM and a Dmax (IKZF2) of 82%. The DC50 (IKZF2; HiBiT assay) was 48 nM.
Compound `CCCO[C@H]1CC[C@H](NCc2ccc3c(c2)CN(C2CCC(=O)NC2=O)C3=O)CC1` (stereo partly drawn) [Example 75] has a Dmax (IKZF1) of 49%, a DC50 (IKZF1) of 127 nM and a Dmax (IKZF2) of 90%. The DC50 (IKZF2; HiBiT assay) was 100 nM.
`CO[C@H]1CC[C@H](NCc2ccc3c(c2)CN(C2CCC(=O)NC2=O)C3=O)CC1` (stereo partly drawn) [Example 76] showed a Dmax (IKZF1) of 51%, a DC50 (IKZF1) of 184 nM and a Dmax (IKZF2) of 90%. The DC50 (IKZF2; HiBiT assay) was 144 nM.
With `O=C1CCC(N2Cc3cc(CN[C@H]4CC[C@H](C(F)(F)F)CC4)ccc3C2=O)C(=O)N1` (stereo partly drawn) [Example 77] the Dmax (IKZF1) was 59%, the DC50 (IKZF1) was 144 nM and the Dmax (IKZF2) was 74%. For the same compound, the DC50 (IKZF2; HiBiT assay) was 171 nM.
`C[C@H]1CCCC[C@H]1NCc1ccc2c(c1)CN(C1CCC(=O)NC1=O)C2=O` (stereo partly drawn) [Example 78] gave a Dmax (IKZF1) of 30%, a DC50 (IKZF1) of 1700 nM and a Dmax (IKZF2) of 81%. The DC50 (IKZF2; HiBiT assay) was 115 nM.
`CCCC[C@H]1CC[C@H](NCc2ccc3c(c2)CN(C2CCC(=O)NC2=O)C3=O)CC1` (stereo partly drawn) [Example 79] gave a Dmax (IKZF1) of 30%, a DC50 (IKZF1) of 169 nM and a Dmax (IKZF2) of 69%. For the same compound, the DC50 (IKZF2; HiBiT assay) was 218 nM.
